pIC50: −log10 of the molar value.
target: ALK tyrosine kinase receptor (Homo sapiens, UniProt Q9UM73, L1196M); experiment: not given; conditions: not given

Row | Compound | pIC50
1 | COc1cc(N2CCN(CC(N)=O)C2=O)ccc1Nc1ncc(Cl)c(Nc2ccccc2S(=O)(=O)C(C)C)n1 | 9.02

system: A549; experiment: cells; conditions: Homo sapiens, A549, 72 h
Description: Cytotoxicity against human A549 cells incubated for 72 hrs by MTT assay

Row | Compound | pIC50
2 | COc1cc(N2CCN(CC(=O)NCCO)C2=O)ccc1Nc1ncc(Cl)c(Nc2ccccc2S(=O)(=O)C(C)C)n1 | < 5.30
3 | COc1cc(N2CCN(CC(=O)NC3CC3)C2=O)ccc1Nc1ncc(Cl)c(Nc2ccccc2S(=O)(=O)C(C)C)n1 | < 5.30
4 | COc1cc(N2CCN(CC(=O)N3CCCC3)C2=O)ccc1Nc1ncc(Cl)c(Nc2ccccc2S(=O)(=O)C(C)C)n1 | 5.51
5 | COc1cc(N2CCN(CC(=O)NCC#N)C2=O)ccc1Nc1ncc(Cl)c(Nc2ccccc2S(=O)(=O)C(C)C)n1 | 5.39
6 | COc1cc(N2CCN(CC(=O)N3CCN(CCO)CC3)C2=O)ccc1Nc1ncc(Cl)c(Nc2ccccc2S(=O)(=O)C(C)C)n1 | 5.34
7 | COc1cc(N2CCN(CC(=O)N3CC(O)C3)C2=O)ccc1Nc1ncc(Cl)c(Nc2ccccc2S(=O)(=O)C(C)C)n1 | 5.53
8 | COc1cc(N2CCN(CC(N)=O)C2=O)ccc1Nc1ncc(Cl)c(Nc2ccccc2S(=O)(=O)C(C)C)n1 | < 5.30
9 | COc1cc(N2CCN(CCN3CCOCC3)C2=O)ccc1Nc1ncc(Cl)c(Nc2ccccc2S(=O)(=O)C(C)C)n1 | < 5.30

target: ALK tyrosine kinase receptor (Homo sapiens, UniProt Q9UM73); experiment: not given; conditions: not given
Sequence (Q9UM73 whole entry): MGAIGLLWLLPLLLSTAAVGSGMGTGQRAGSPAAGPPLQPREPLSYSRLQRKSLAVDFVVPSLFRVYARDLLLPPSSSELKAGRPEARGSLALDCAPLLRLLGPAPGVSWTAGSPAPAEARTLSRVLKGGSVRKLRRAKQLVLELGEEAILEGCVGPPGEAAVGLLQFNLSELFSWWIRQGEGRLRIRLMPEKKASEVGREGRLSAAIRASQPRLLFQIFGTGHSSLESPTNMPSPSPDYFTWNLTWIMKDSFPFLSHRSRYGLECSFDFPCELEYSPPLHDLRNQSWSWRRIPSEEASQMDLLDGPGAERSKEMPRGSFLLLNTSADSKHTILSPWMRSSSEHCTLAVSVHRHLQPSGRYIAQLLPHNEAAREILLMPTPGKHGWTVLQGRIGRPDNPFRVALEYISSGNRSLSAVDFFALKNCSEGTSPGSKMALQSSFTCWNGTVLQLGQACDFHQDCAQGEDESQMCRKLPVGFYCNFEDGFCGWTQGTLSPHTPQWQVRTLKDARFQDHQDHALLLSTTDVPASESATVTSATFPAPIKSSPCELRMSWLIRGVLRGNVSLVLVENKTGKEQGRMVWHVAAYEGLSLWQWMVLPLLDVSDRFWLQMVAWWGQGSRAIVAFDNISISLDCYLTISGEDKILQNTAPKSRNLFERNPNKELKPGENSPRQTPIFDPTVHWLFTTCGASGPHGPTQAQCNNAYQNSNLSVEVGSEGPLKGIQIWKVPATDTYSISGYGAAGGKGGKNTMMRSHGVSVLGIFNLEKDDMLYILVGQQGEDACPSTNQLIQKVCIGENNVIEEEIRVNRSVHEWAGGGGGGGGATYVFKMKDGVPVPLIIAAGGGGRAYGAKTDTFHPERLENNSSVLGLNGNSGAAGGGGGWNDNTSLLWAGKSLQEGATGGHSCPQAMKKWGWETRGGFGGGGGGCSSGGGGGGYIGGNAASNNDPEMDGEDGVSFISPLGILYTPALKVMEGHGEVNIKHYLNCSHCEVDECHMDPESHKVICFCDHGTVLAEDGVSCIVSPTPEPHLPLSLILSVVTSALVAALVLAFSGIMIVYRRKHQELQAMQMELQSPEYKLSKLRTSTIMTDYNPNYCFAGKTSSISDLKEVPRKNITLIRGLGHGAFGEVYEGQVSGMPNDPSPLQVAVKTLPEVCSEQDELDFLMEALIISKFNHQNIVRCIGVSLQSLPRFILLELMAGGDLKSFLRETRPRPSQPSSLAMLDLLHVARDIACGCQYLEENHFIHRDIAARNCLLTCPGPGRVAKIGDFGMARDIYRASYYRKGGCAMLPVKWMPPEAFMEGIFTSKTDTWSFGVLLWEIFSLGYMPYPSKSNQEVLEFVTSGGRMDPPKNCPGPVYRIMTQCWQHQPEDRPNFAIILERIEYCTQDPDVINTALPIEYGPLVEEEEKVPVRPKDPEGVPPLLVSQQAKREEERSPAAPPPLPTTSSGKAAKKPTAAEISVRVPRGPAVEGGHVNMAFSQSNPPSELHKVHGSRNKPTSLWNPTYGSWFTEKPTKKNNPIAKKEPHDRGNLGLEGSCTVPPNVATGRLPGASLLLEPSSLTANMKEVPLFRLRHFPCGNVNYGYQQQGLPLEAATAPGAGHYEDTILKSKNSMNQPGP

Row | Compound | pIC50
10 | COc1cc(N2CCN(CC(N)=O)C2=O)ccc1Nc1ncc(Cl)c(Nc2ccccc2S(=O)(=O)C(C)C)n1 | 8.57

system: KARPAS-299; experiment: cells; conditions: Homo sapiens, KARPAS-299, 72 h
Description: Cytotoxicity against human KARPAS299 cells incubated for 72 hrs by MTT assay

Row | Compound | pIC50
11 | COc1cc(N2CCN(CC(=O)NCCO)C2=O)ccc1Nc1ncc(Cl)c(Nc2ccccc2S(=O)(=O)C(C)C)n1 | 6.96
12 | COc1cc(N2CCN(CC(=O)NC3CC3)C2=O)ccc1Nc1ncc(Cl)c(Nc2ccccc2S(=O)(=O)C(C)C)n1 | 6.57
13 | COc1cc(N2CCN(CC(=O)N3CCCC3)C2=O)ccc1Nc1ncc(Cl)c(Nc2ccccc2S(=O)(=O)C(C)C)n1 | 6.41
14 | COc1cc(N2CCN(CC(=O)NCC#N)C2=O)ccc1Nc1ncc(Cl)c(Nc2ccccc2S(=O)(=O)C(C)C)n1 | 6.82
15 | COc1cc(N2CCN(CC(=O)N3CCN(CCO)CC3)C2=O)ccc1Nc1ncc(Cl)c(Nc2ccccc2S(=O)(=O)C(C)C)n1 | 6.96
16 | COc1cc(N2CCN(CC(=O)N3CC(O)C3)C2=O)ccc1Nc1ncc(Cl)c(Nc2ccccc2S(=O)(=O)C(C)C)n1 | 6.89
17 | COc1cc(N2CCN(CC(N)=O)C2=O)ccc1Nc1ncc(Cl)c(Nc2ccccc2S(=O)(=O)C(C)C)n1 | 7.01
18 | COc1cc(N2CCN(CCN3CCOCC3)C2=O)ccc1Nc1ncc(Cl)c(Nc2ccccc2S(=O)(=O)C(C)C)n1 | 6.41

system: NCI-H2228; experiment: cells; conditions: Homo sapiens, NCI-H2228, 72 h
Description: Cytotoxicity against human NCI-H2228 cells incubated for 72 hrs by MTT assay

Row | Compound | pIC50
19 | COc1cc(N2CCN(CC(=O)NCCO)C2=O)ccc1Nc1ncc(Cl)c(Nc2ccccc2S(=O)(=O)C(C)C)n1 | 6.38
20 | COc1cc(N2CCN(CC(=O)NC3CC3)C2=O)ccc1Nc1ncc(Cl)c(Nc2ccccc2S(=O)(=O)C(C)C)n1 | 6.04
21 | COc1cc(N2CCN(CC(=O)N3CCCC3)C2=O)ccc1Nc1ncc(Cl)c(Nc2ccccc2S(=O)(=O)C(C)C)n1 | 6.82
22 | COc1cc(N2CCN(CC(=O)NCC#N)C2=O)ccc1Nc1ncc(Cl)c(Nc2ccccc2S(=O)(=O)C(C)C)n1 | 6.64
23 | COc1cc(N2CCN(CC(=O)N3CCN(CCO)CC3)C2=O)ccc1Nc1ncc(Cl)c(Nc2ccccc2S(=O)(=O)C(C)C)n1 | 6.92
24 | COc1cc(N2CCN(CC(=O)N3CC(O)C3)C2=O)ccc1Nc1ncc(Cl)c(Nc2ccccc2S(=O)(=O)C(C)C)n1 | 6.49
25 | COc1cc(N2CCN(CC(N)=O)C2=O)ccc1Nc1ncc(Cl)c(Nc2ccccc2S(=O)(=O)C(C)C)n1 | 6.43
26 | COc1cc(N2CCN(CCN3CCOCC3)C2=O)ccc1Nc1ncc(Cl)c(Nc2ccccc2S(=O)(=O)C(C)C)n1 | 6.12

system: HCC78; experiment: cells; conditions: Homo sapiens, HCC78, 72 h
Description: Cytotoxicity against human HCC78 cells incubated for 72 hrs by MTT assay

Row | Compound | pIC50
27 | COc1cc(N2CCN(CC(=O)NCCO)C2=O)ccc1Nc1ncc(Cl)c(Nc2ccccc2S(=O)(=O)C(C)C)n1 | 7.16
28 | COc1cc(N2CCN(CC(=O)NC3CC3)C2=O)ccc1Nc1ncc(Cl)c(Nc2ccccc2S(=O)(=O)C(C)C)n1 | 6.29
29 | COc1cc(N2CCN(CC(=O)N3CCCC3)C2=O)ccc1Nc1ncc(Cl)c(Nc2ccccc2S(=O)(=O)C(C)C)n1 | 6.57
30 | COc1cc(N2CCN(CC(=O)NCC#N)C2=O)ccc1Nc1ncc(Cl)c(Nc2ccccc2S(=O)(=O)C(C)C)n1 | 7.11
31 | COc1cc(N2CCN(CC(=O)N3CCN(CCO)CC3)C2=O)ccc1Nc1ncc(Cl)c(Nc2ccccc2S(=O)(=O)C(C)C)n1 | 6.41
32 | COc1cc(N2CCN(CC(=O)N3CC(O)C3)C2=O)ccc1Nc1ncc(Cl)c(Nc2ccccc2S(=O)(=O)C(C)C)n1 | 6.96
33 | COc1cc(N2CCN(CC(N)=O)C2=O)ccc1Nc1ncc(Cl)c(Nc2ccccc2S(=O)(=O)C(C)C)n1 | 6.06
34 | COc1cc(N2CCN(CCN3CCOCC3)C2=O)ccc1Nc1ncc(Cl)c(Nc2ccccc2S(=O)(=O)C(C)C)n1 | 6.14

target: Proto-oncogene tyrosine-protein kinase ROS (Homo sapiens, UniProt P08922); experiment: not given; conditions: not given
Sequence (P08922 whole entry): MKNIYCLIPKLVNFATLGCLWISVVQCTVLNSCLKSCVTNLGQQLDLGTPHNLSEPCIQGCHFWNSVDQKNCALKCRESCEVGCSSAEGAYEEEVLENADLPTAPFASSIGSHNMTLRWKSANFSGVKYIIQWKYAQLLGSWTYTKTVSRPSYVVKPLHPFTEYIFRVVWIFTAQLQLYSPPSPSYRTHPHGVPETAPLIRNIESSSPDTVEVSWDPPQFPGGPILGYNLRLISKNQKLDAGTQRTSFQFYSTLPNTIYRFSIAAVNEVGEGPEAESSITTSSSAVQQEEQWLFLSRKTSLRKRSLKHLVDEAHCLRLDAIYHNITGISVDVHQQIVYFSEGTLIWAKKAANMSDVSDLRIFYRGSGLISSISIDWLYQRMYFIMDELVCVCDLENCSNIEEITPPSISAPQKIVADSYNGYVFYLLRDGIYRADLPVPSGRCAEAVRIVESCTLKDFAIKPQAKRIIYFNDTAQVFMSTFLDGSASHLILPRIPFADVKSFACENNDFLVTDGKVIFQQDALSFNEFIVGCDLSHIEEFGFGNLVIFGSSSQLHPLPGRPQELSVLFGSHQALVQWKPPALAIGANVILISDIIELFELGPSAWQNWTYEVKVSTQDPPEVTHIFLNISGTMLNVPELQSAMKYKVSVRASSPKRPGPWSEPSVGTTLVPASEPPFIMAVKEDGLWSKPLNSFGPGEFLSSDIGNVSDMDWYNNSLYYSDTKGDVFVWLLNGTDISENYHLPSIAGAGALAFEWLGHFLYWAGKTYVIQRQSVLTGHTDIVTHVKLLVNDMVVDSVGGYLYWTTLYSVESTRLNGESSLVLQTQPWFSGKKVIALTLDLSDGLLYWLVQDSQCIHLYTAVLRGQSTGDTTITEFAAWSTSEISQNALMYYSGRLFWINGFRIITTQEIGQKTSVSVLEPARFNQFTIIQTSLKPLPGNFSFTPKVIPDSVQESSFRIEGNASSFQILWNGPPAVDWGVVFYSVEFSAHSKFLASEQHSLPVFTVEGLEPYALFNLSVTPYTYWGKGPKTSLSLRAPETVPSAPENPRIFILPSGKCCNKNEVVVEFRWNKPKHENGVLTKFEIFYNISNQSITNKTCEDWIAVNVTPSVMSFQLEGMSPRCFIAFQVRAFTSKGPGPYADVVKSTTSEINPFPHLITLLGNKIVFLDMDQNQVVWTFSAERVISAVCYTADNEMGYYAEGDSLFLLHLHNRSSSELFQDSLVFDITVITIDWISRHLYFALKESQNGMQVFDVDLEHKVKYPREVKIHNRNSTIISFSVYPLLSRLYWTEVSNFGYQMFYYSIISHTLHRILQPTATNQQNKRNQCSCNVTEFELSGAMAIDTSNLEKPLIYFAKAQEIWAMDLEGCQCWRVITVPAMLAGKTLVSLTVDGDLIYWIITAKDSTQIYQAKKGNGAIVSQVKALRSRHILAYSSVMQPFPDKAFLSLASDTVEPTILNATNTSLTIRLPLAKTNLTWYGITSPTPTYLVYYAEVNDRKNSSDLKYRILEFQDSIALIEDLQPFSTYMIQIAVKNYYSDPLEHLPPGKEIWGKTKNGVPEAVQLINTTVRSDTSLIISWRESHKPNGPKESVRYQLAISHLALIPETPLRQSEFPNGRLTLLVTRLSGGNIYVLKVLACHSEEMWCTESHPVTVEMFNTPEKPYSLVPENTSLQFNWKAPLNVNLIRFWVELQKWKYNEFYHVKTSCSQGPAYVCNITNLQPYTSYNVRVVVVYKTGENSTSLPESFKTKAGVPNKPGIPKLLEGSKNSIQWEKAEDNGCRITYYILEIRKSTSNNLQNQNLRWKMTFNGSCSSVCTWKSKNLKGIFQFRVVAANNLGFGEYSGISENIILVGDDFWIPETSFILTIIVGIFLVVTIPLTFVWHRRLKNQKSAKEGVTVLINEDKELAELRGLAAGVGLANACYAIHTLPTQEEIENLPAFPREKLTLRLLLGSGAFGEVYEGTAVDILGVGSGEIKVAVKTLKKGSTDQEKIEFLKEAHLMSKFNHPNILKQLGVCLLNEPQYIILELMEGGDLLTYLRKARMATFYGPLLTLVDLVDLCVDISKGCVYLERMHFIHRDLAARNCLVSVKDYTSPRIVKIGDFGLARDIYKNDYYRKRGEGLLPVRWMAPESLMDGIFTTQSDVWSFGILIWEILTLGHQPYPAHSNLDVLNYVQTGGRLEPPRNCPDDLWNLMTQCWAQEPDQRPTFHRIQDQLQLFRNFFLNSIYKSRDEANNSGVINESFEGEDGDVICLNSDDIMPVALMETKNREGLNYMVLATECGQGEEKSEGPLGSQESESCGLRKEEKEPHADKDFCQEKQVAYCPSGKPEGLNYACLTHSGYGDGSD

Row | Compound | pIC50
35 | COc1cc(N2CCN(CC(N)=O)C2=O)ccc1Nc1ncc(Cl)c(Nc2ccccc2S(=O)(=O)C(C)C)n1 | 9.12

system: BaF3; experiment: cells; conditions: Mus musculus, BaF3, 72 h
Description: Cytotoxicity against mouse BA/F3 cells incubated for 72 hrs by MTT assay

Row | Compound | pIC50
36 | COc1cc(N2CCN(CC(=O)NCCO)C2=O)ccc1Nc1ncc(Cl)c(Nc2ccccc2S(=O)(=O)C(C)C)n1 | < 5.30
37 | COc1cc(N2CCN(CC(=O)NC3CC3)C2=O)ccc1Nc1ncc(Cl)c(Nc2ccccc2S(=O)(=O)C(C)C)n1 | < 5.30
38 | COc1cc(N2CCN(CC(=O)N3CCCC3)C2=O)ccc1Nc1ncc(Cl)c(Nc2ccccc2S(=O)(=O)C(C)C)n1 | 5.35
39 | COc1cc(N2CCN(CC(=O)NCC#N)C2=O)ccc1Nc1ncc(Cl)c(Nc2ccccc2S(=O)(=O)C(C)C)n1 | < 5.30
40 | COc1cc(N2CCN(CC(=O)N3CCN(CCO)CC3)C2=O)ccc1Nc1ncc(Cl)c(Nc2ccccc2S(=O)(=O)C(C)C)n1 | < 5.30
41 | COc1cc(N2CCN(CC(=O)N3CC(O)C3)C2=O)ccc1Nc1ncc(Cl)c(Nc2ccccc2S(=O)(=O)C(C)C)n1 | < 5.30
42 | COc1cc(N2CCN(CC(N)=O)C2=O)ccc1Nc1ncc(Cl)c(Nc2ccccc2S(=O)(=O)C(C)C)n1 | 5.77
43 | COc1cc(N2CCN(CCN3CCOCC3)C2=O)ccc1Nc1ncc(Cl)c(Nc2ccccc2S(=O)(=O)C(C)C)n1 | < 5.30

target: Epidermal growth factor receptor (Homo sapiens, UniProt P00533); experiment: not given; conditions: not given
Sequence (P00533 whole entry): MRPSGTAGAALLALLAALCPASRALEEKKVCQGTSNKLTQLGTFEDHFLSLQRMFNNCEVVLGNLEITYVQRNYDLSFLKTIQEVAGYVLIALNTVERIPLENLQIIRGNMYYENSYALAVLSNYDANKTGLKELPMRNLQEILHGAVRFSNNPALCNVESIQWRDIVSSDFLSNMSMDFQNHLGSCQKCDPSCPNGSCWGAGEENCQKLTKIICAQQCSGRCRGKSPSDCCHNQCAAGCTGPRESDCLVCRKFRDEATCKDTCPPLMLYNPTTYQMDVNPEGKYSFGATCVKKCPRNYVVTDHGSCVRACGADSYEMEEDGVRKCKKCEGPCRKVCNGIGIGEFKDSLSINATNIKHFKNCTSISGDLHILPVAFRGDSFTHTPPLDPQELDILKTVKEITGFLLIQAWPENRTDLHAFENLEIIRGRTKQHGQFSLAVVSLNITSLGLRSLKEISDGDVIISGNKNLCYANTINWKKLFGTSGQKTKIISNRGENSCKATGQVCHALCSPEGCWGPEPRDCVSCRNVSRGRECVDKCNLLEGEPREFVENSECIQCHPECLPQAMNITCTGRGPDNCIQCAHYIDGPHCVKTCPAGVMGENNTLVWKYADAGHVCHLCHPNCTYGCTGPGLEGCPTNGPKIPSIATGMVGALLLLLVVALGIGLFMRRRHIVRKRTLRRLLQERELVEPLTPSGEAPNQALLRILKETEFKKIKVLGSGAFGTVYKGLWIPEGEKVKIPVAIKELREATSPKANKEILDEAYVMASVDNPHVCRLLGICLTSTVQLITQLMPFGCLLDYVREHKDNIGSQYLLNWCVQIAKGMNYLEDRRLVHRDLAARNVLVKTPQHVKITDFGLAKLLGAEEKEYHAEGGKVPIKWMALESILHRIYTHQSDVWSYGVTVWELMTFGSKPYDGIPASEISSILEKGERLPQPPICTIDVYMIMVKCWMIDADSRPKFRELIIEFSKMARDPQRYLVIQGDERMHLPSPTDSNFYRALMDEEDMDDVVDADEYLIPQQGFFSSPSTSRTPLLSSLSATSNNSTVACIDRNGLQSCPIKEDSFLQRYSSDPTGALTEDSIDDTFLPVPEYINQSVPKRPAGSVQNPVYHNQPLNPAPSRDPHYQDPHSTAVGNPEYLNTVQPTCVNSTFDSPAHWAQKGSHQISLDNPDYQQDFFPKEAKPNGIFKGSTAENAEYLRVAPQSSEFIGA

Row | Compound | pIC50
44 | COc1cc(N2CCN(CC(N)=O)C2=O)ccc1Nc1ncc(Cl)c(Nc2ccccc2S(=O)(=O)C(C)C)n1 | < 6.00

system: A549; experiment: cells; conditions: Homo sapiens, A549, 72 h; remark: another data set of the same source

Row | Compound | pIC50
45 | COc1cc(N2CCN(CC(=O)NCCO)C2=O)ccc1Nc1ncc(Cl)c(Nc2ccccc2S(=O)(=O)C(C)C)n1 | 5.74
46 | COc1cc(N2CCN(CC(=O)NC3CC3)C2=O)ccc1Nc1ncc(Cl)c(Nc2ccccc2S(=O)(=O)C(C)C)n1 | 5.76
47 | COc1cc(N2CCN(CC(=O)N3CCCC3)C2=O)ccc1Nc1ncc(Cl)c(Nc2ccccc2S(=O)(=O)C(C)C)n1 | 5.96
48 | COc1cc(N2CCN(CC(=O)NCC#N)C2=O)ccc1Nc1ncc(Cl)c(Nc2ccccc2S(=O)(=O)C(C)C)n1 | 5.62
49 | COc1cc(N2CCN(CC(=O)N3CCN(CCO)CC3)C2=O)ccc1Nc1ncc(Cl)c(Nc2ccccc2S(=O)(=O)C(C)C)n1 | 5.61
50 | COc1cc(N2CCN(CC(=O)N3CC(O)C3)C2=O)ccc1Nc1ncc(Cl)c(Nc2ccccc2S(=O)(=O)C(C)C)n1 | 5.99
51 | COc1cc(N2CCN(CC(N)=O)C2=O)ccc1Nc1ncc(Cl)c(Nc2ccccc2S(=O)(=O)C(C)C)n1 | 6.96
52 | COc1cc(N2CCN(CCN3CCOCC3)C2=O)ccc1Nc1ncc(Cl)c(Nc2ccccc2S(=O)(=O)C(C)C)n1 | 5.66

system: BaF3; experiment: cells; conditions: Mus musculus, BaF3, 72 h; remark: another data set of the same source

Row | Compound | pIC50
53 | COc1cc(N2CCN(CC(=O)NCCO)C2=O)ccc1Nc1ncc(Cl)c(Nc2ccccc2S(=O)(=O)C(C)C)n1 | 5.49
54 | COc1cc(N2CCN(CC(=O)NC3CC3)C2=O)ccc1Nc1ncc(Cl)c(Nc2ccccc2S(=O)(=O)C(C)C)n1 | < 5.30
55 | COc1cc(N2CCN(CC(=O)N3CCCC3)C2=O)ccc1Nc1ncc(Cl)c(Nc2ccccc2S(=O)(=O)C(C)C)n1 | 5.60
56 | COc1cc(N2CCN(CC(=O)NCC#N)C2=O)ccc1Nc1ncc(Cl)c(Nc2ccccc2S(=O)(=O)C(C)C)n1 | 5.55
57 | COc1cc(N2CCN(CC(=O)N3CCN(CCO)CC3)C2=O)ccc1Nc1ncc(Cl)c(Nc2ccccc2S(=O)(=O)C(C)C)n1 | 6.80
58 | COc1cc(N2CCN(CC(=O)N3CC(O)C3)C2=O)ccc1Nc1ncc(Cl)c(Nc2ccccc2S(=O)(=O)C(C)C)n1 | 5.37
59 | COc1cc(N2CCN(CC(N)=O)C2=O)ccc1Nc1ncc(Cl)c(Nc2ccccc2S(=O)(=O)C(C)C)n1 | 7.10
60 | COc1cc(N2CCN(CCN3CCOCC3)C2=O)ccc1Nc1ncc(Cl)c(Nc2ccccc2S(=O)(=O)C(C)C)n1 | 6.96

target: ALK tyrosine kinase receptor (Homo sapiens, UniProt Q9UM73, G1202R); experiment: not given; conditions: not given

Row | Compound | pIC50
61 | COc1cc(N2CCN(CC(N)=O)C2=O)ccc1Nc1ncc(Cl)c(Nc2ccccc2S(=O)(=O)C(C)C)n1 | 8.07

From ChEMBL document CHEMBL4346688, “Discovery of novel mutant-combating ALK and ROS1 dual inhibitors bearing imidazolidin-2-one moiety with reasonable PK properties” (Eur J Med Chem, 2019)
